Source: patent US5166379A, “Synthesis of compounds with biological activity, and methods of use” (Harbor Branch Oceanographic Institution, Inc., priority 1990, dated 1992)
≈ marks a conversion by molar mass, not a printed value. Like-named read-outs stand apart in the source and are kept apart here.

Legend:
[1] = test system: murine splenocyte suspensions (BALB/c and C57BL/6J mice); assay: Mixed Lymphocyte Reaction (MLR); assay type: cell-based; conditions: for activity at 0.05 µg/mL / activity at 0.2 µg/mL / activity at 0.8 µg/mL / activity at 3.1 µg/mL / activity at 12.5 µg/mL / activity at 50 µg/mL: Mus musculus, Splenocyte, read-out: % MLR (percentage of positive control)
Protocol: I. Mixed Lymphocyte Reaction
1. Murine splenocyte suspensions were prepared separately from BALB/c and C57BL/6J mice. […] The cell concentrations were adjusted to 2.5×10^6 cells/ml. Aliquots of each cell population were removed to separate tubes, and the remaining two cell suspensions combined to one tube.
(§1) 2. Serial, log10 dilutions of the pure compound were made in absolute ethanol, and 10 μl of each dilution was added to wells of microtiter test plates, and allowed to dry.
3. A volume of 0.2 ml of the combined splenocyte suspensions was added to triplicate test wells. Positive control wells received combined splenocyte suspensions in the absence of the test compounds. Negative control wells consisted of separate (not mixed) splenocyte suspensions cultured in the absence of the test compounds.
4. Plates were incubated in 5% CO2 at 37° C. for 86 hours.
5. A volume of 0.05 ml of ^3 H-thymidine (20 μCi/ml) was added to each well, and the plates were incubated in 5% CO2 at 37° C. for an additional 5 hours.
6. The contents of each well of the microtiter plates were harvested onto glass fiber filter strips, and the resulting filter discs placed in scintillation vials to which 2.0 ml of scintillation fluid was added.
7. The amount of incorporated ^3 H-thymidine was determined by counting the vials in a liquid scintillation counter.
8. Triplicate counts were averaged, and the data reported as a percentage of the positive control.

[2] = Lymphocyte Viability Assay (LCV); assay type: cell-based, murine; conditions: mouse, splenocytes, read-out: % LCV (percentage of positive control)
Protocol: (§2) II. Lymphocyte Viability Assay
(§3) 1. Compounds were similarly tested in parallel with the MLR to determine their toxic effects on lymphoid cells using the lymphocyte viability assay (LCV).
as §1
(§4) 3. Murine splenocyte suspensions were prepared from BALB/c mice. […] The cell concentrations were adjusted to 2.5×10^6 cells/ml.
(§5) 4. A volume of 0.2 ml of the splenocyte suspension was added to replicate test wells. Positive control wells received splenocyte suspensions in the absence of the test compounds.
(§6) 5. Plates were incubated at 37° C. for 86 hours. At the end of the incubation period, a volume of 75 μl of a 2.0 mg/ml solution of MTT was added to each well, and the plates were returned to the incubator for an additional 5 hours.
(§7) 6. The supernatants from each microwell were then removed, and a volume of 200 μl of isopropanol was added and the contents mixed.
(§8) 7. Values were obtained by comparing the optical densities (determined at 570 and 650 nm) of wells containing the test compounds with those of wells containing cells and medium only (positive control). The results are expressed as a percentage of the positive control.
(§9) 8. Replicate counts were averaged, and the data reported as a percentage of the positive control. An LCV value of less than 60% of the positive control is an indication of cytotoxicity of the test compounds for lymphoid cells.

P388 cells = assay: Antiproliferative effects against P388 cells (antitumor, MTT); assay type: cell-based; conditions: for IC50: Mus musculus, P388, 48 hour exposure; for P388 IC50: 48 hour exposure
Protocol: IV. Antitumor Methodology
To assess the antiproliferative effects against P388 cells, 200 μl cultures (96-well tissue culture plates, Nunc, Denmark) were established at 1×10^5 cells/ml in drug-free medium or medium containing the pure compounds/crude extracts at a final dilution or 1:500 and at various concentrations. Solvent for all dilutions was methanol, which was removed from plates under vacuum. All experimental cultures were initiated in media containing Gentamicin sulfate (50 μg/ml; Schering Corporation, Kenilworth, NJ).
To quantitate the effects of pure compounds/crude extracts on cell proliferation, 75 μl of warm growth medium containing 5 mg/ml MTT was added to each well, cultures were returned to the incubator, and were left undisturbed for 90 minutes. To spectrophotometrically quantitate formation of reduced formazan, plates were centrifuged (900×g, 5 minutes), culture fluids removed by aspiration, and 200 μl of acidified isopropanol (2 ml concentrated HCl/liter isopropanol) added per well. The absorbance of the resulting solutions were measured at 570 nm with a plate reader (MR700 Microplate Reader, Dynatech Laboratories, Chantilly, VA).

[3] = test system: lymphoid cells (murine BALB/c splenocytes); assay: Lymphocyte Viability Assay (LCV); assay type: cell-based
Protocol: as §2, §3, §1, §4, §5, §6, §7, §8, §9

IC50 (P388 cells) [µg/mL] | Compound | activity at 0.05 µg/mL ([1]; 0.05 μg/ml) [%] | activity at 0.2 µg/mL ([1]; 0.2 μg/ml) [%] | activity at 0.8 µg/mL ([1]; 0.8 μg/ml) [%] | activity at 3.1 µg/mL ([1]; 3.1 μg/ml) [%] | activity at 12.5 µg/mL ([1]; 12.5 μg/ml) [%] | activity at 50 µg/mL ([1]; 50 μg/ml) [%] | viability ([2]; 0.05 μg/ml) [%] | viability ([2]; 0.2 μg/ml) [%] | viability ([2]; 0.8 μg/ml) [%] | viability ([2]; 3.1 μg/ml) [%] | viability ([2]; 12.5 μg/ml) [%] | viability ([2]; 50 μg/ml) [%] | % MLR (percentage of positive control) ([1]; 0.05 μg/ml) [%] | % MLR (percentage of positive control) ([1]; 0.2 μg/ml) [%] | % MLR (percentage of positive control) ([1]; 0.8 μg/ml) [%] | % MLR (percentage of positive control) ([1]; 3.1 μg/ml) [%] | % MLR (percentage of positive control) ([1]; 12.5 μg/ml) [%] | % MLR (percentage of positive control) ([1]; 50 μg/ml) [%] | % LCV (percentage of positive control) ([3]; 0.05 μg/ml) [%] | other results
44 (≈ 183 µM) | CCCCCCCCCCCCCCCC=O [CH3 (CH2)14 CHO] | 59 | 94 | 80 | 73 | 36 | 0 | 237 | 182 | 161 | 202 | 153 | 132 |  |  |  |  |  |  |  | 
67 (≈ 219 µM) | C#CC(C)(O)/C=C/CCCCCCCCCCCCCCC (stereo not shown) [CH3 (CH2)14 CH=CH--COH(CH3)--C≡CH] | 152 | 161 | 171 | 115 | 65 | 0 | 53 | 107 | 118 | 109 | 54 | 5 |  |  |  |  |  |  |  | 
200 (≈ 652 µM) | CC#CC(O)/C=C/CCCCCCCCCCCCCCC (stereo not shown) [CH3 (CH2)14 CH=CH--CHOH--C≡C--CH3] | 137 | 143 | 83 | 0 | 0 | 0 | 154 | 107 | 75 | 86 | 67 | 60 |  |  |  |  |  |  |  | 
100 (≈ 299 µM) | C#CC(/C=C/CCCCCCCCCCCCCCC)OC(C)=O (stereo not shown) [CH3 (CH2)14 CH=CH--CHOAc--C≡CH] | 73 | 0 | 0 | 0 | 0 | 0 | 58 | 53 | 30 | 30 | 23 | 11 |  |  |  |  |  |  |  | 
15.1 (≈ 56.7 µM) | CCCCCCCCCCCCCCC/C=C/C=O [CH3 (CH2)14 CH=CH--CHO] | 150 | 105 | 135 | 146 | 0 | 0 | 130 | 175 | 181 | 186 | 89 | 5 |  |  |  |  |  |  |  | 
9.3 (≈ 38.4 µM) | CCCCCCCCCCCCCCCCO [CH3 (CH2)14 CH2 OH] | 136 | 128 | 127 | 137 | 0 | 0 | 70 | 86 | 37 | 98 | 0 | 0 |  |  |  |  |  |  |  | 
 | C#CC(O)C=CCCCCCCCCC (stereo not shown) [CH3 (CH2)8 CH=CH--CHOH--C≡CH] |  |  |  |  |  |  |  |  |  |  |  |  | 120 | 0 | 0 | 0 | 0 | 0 | 35 | % LCV (percentage of positive control) ([3]; 0.2 μg/ml): 44%; % LCV (percentage of positive control) ([3]; 0.8 μg/ml): 30%; % LCV (percentage of positive control) ([3]; 3.1 μg/ml): 26%; % LCV (percentage of positive control) ([3]; 12.5 μg/ml): 5%; % LCV (percentage of positive control) ([3]; 50 μg/ml): 0%; P388 IC50 (P388 cells): 27.0 µg/mL
 | C#CC(O)C=CCCCCC (stereo not shown) [CH3 (CH2)4 CH= CH--CHOH--C≡CH] |  |  |  |  |  |  |  |  |  |  |  |  | 112 | 14 | 82 | 0 | 0 | 0 | 109 | % LCV (percentage of positive control) ([3]; 0.2 μg/ml): 121%; % LCV (percentage of positive control) ([3]; 0.8 μg/ml): 119%; % LCV (percentage of positive control) ([3]; 3.1 μg/ml): 89%; % LCV (percentage of positive control) ([3]; 12.5 μg/ml): 65%; % LCV (percentage of positive control) ([3]; 50 μg/ml): 7%; P388 IC50 (P388 cells): 74.0 µg/mL
 | C#CC(O)C=CCCCCCCCCCCCCCCCCCCC (stereo not shown) [CH3 (CH2)18 CH=CH--CHOH--C≡CH] |  |  |  |  |  |  |  |  |  |  |  |  | 103 | 103 | 0 | 0 | 0 | 0 | 58 | % LCV (percentage of positive control) ([3]; 0.2 μg/ml): 70%; % LCV (percentage of positive control) ([3]; 0.8 μg/ml): 61%; % LCV (percentage of positive control) ([3]; 3.1 μg/ml): 28%; % LCV (percentage of positive control) ([3]; 12.5 μg/ml): 30%; % LCV (percentage of positive control) ([3]; 50 μg/ml): 39%; P388 IC50 (P388 cells): 219 µg/mL

Compound | IC50 (P388 cells) [µg/mL] | activity at 0.05 µg/mL ([1]; 0.05 μg/ml) [%] | activity at 0.2 µg/mL ([1]; 0.2 μg/ml) [%] | activity at 0.8 µg/mL ([1]; 0.8 μg/ml) [%] | activity at 3.1 µg/mL ([1]; 3.1 μg/ml) [%] | activity at 12.5 µg/mL ([1]; 12.5 μg/ml) [%] | activity at 50 µg/mL ([1]; 50 μg/ml) [%] | viability ([2]; 0.05 μg/ml) [%] | viability ([2]; 0.2 μg/ml) [%] | viability ([2]; 0.8 μg/ml) [%] | viability ([2]; 3.1 μg/ml) [%] | viability ([2]; 12.5 μg/ml) [%] | viability ([2]; 50 μg/ml) [%] | % MLR (percentage of positive control) ([1]; 0.05 μg/ml) [%] | % MLR (percentage of positive control) ([1]; 0.2 μg/ml) [%] | % MLR (percentage of positive control) ([1]; 0.8 μg/ml) [%] | % MLR (percentage of positive control) ([1]; 3.1 μg/ml) [%] | % MLR (percentage of positive control) ([1]; 12.5 μg/ml) [%] | % MLR (percentage of positive control) ([1]; 50 μg/ml) [%] | % LCV (percentage of positive control) ([3]; 0.05 μg/ml) [%] | other results
CCCCCCCCCCCCCCC/C=C/C(O)C#N (stereo not shown) [CH3 (CH2)14 CH=CH--CHOH--C≡N] | 28 (≈ 95.4 µM) | 60 | 89 | 85 | 80 | 0 | 0 | 132 | 135 | 161 | 144 | 77 | 37 |  |  |  |  |  |  |  | 
